Results from publication PMC9783227, “New Derivatives of the Multi-Stage Active Malaria Box Compound MMV030666 and Their Antiplasmodial Potencies” (Pharmaceuticals, 2022).
Like-named read-outs stand apart in the source and are kept apart here.

Tests used:
P. falciparum NF54 = assay: In vitro microplate assay against P. falciparum NF54 (3H-hypoxanthine incorporation); format: cell-based, Plasmodium falciparum; details: for S.I. = IC50 (Cyt.)/IC50 (PfNF54): L-6 cells IC50 / PfNF54 IC50; for IC50: average of four determinations, read-out: PfNF54 IC50
Experimental: (§1) All newly prepared compounds were tested for their in vitro activity against the chloroquine sensitive strain NF54 of P. falciparum. Cytotoxicity was determined using L-6 cells (rat skeletal myofibroblasts). Chloroquine and podophyllotoxin were used as standards.
The in vitro activity of compounds against erythrocytic stages of the drug sensitive NF54 strain of P. falciparum […] was determined using a ^3H-hypoxanthine incorporation assay. Compounds were dissolved in DMSO at 10 mg/mL and further diluted in medium before adding to parasite cultures that were incubated in RPMI 1640 medium without hypoxanthine, supplemented with HEPES (5.94 g/L), NaHCO3 (2.1 g/L), neomycin (100 U/mL), AlbumaxR (5 g/L) and washed human red blood cells A+ at 2.5% haematocrit (0.3% parasitaemia). Serial drug dilutions of eleven 3-fold dilutions steps covering a range from 100 to 0.002 µg/mL were prepared. The 96-well plates were incubated in a humidified atmosphere at 37 °C; 4% CO2, 3% O2, 93% N2. After 48 h of incubation time, 0.05 mL of ^3H-hypoxanthine (=0.5 µCi) was added to each well of the plate. The plates were incubated for further 24 h under the same conditions. Plates were then harvested using a Betaplate^TM cell harvester (Wallac, Zurich, Switzerland). Red blood cells were transferred onto a glass fiber filter and then washed with distilled water. The dried filters were inserted into a plastic foil with 10 mL of scintillation fluid and counted in a Betaplate^TM liquid scintillation counter (Wallac, Zurich, Switzerland). IC50 values were calculated from sigmoidal inhibition curves by linear regression using Microsoft Excel. Chloroquine (Sigma C6628) was used as control.

[1] = Parallel artificial membrane permeability assay (PAMPA); details: for Papp at 5 h, 200 µM: pH 7.4, Pe
Experimental: The parallel artificial membrane permeability assay (PAMPA) is a fast and easy high-throughput assay to determine passive permeability of compounds through semi-permeable membranes (for example the blood-brain-barrier) without the influence of efflux pumps or transporter molecules.
With the high-throughput PAMPA the newly synthesized compounds were tested for their passive permeability through cell membranes without the influence of efflux pumps or transporter proteins. The assay was performed using a Corning® Gentest^TM Pre-coated PAMPA Plate System with 96-well polystyrene plates. The bottom of the acceptor plate consists of a porous membrane, whereby the pores are lined with a lipid-oil-lipid triple layer. Stock solutions of each test compound at 10 mM were prepared in DMSO or methanol and diluted with phosphate-buffered saline (PBS at a pH of 7.4) to a final concentration of 200 µM. […] The donor plate (bottom plate) was filled with the compound solutions, whereby all compounds were tested in quadruplicates. Each well of the acceptor plate (top plate) was filled with PBS buffer. Donor and acceptor plates were combined and incubated at room temperature for 5 h. After that, the plates were separated and 150 µL of each well of both plates were transferred to 96-well UV plates (Greiner Bio-One). Absorption at different wavelengths covering a range from 200 to 300 nm was measured using a SpectraMax M3 UV plate reader. […] The plates were analyzed at the wavelength where the R^2 value of the calibration curve was higher than 0.99 [41]. […] (2) cequ=[cD(t)∗VD+cA(t)∗VA]/(VD+VA) where: • VD—donor well volume (0.3 mL); • VA—acceptor well volume (0.2 mL); • cA(t)—acceptor well compound concentration at time t; • cD(t)—donor well compound concentration at time t.
Recovery of compounds from donor and acceptor wells (mass retention) was calculated as shown in the equation below. Data were only accepted when recovery exceeded 70%. (3) R=1−[cD(t)∗VD+cA(t)∗VA]/(c0∗VD) where: • R—mass retention (%); • VD—donor well volume (0.3 mL); • VA—acceptor well volume (0.2 mL); • cA(t)—acceptor well compound concentration at time t; • cD(t)—donor well compound concentration at time t; • c0—initial donor well compound concentration (200 µM).

in vitro = details: rat
Experimental: as §1
The cytotoxicity assays were performed using 96-well microtiter plates, each well containing 4000 L-6 cells (a primary cell line derived from rat skeletal myofibroblasts, ATCC CRL-1458^TM) in 0.1 mL of RPMI 1640 medium supplemented with 1% glutamine (200 mM) and 10% fetal bovine serum. Serial drug dilutions of eleven 3-fold dilution steps covering a range from 100 to 0.002 µg/mL were prepared. After 70 h of incubation, the plates were inspected under an inverted microscope to assure growth of the controls and sterile conditions. Then, 0.01 mL resazurin solution (resazurin, 12.5 mg in 100 mL double-distilled water) was added to each well and the plates were incubated for another 2 h. The plates were read with a Spectramax Gemini XS microplate fluorometer (Molecular Devices Cooperation, Sunnyvale, CA, USA) using an excitation wavelength of 536 nm and an emission wavelength of 588 nm. IC50 values were calculated by linear regression from the sigmoidal dose inhibition curves using SoftmaxPro software (Molecular Devices Cooperation, Sunnyvale, CA, USA). Podophyllotoxin (Sigma P4405) was used as control.

[2] = PAMPA, PBS pH 7.4, 200 µM, 5 h, room temperature
[3] = Plasmodium falciparum, NF54, chloroquine sensitive strain NF54, erythrocytic stages
[4] = chloroquine sensitive strain NF54, erythrocytic stages

Row | Compound | S.I. = IC50 (Cyt.)/IC50 (PfNF54) (P. falciparum NF54) | Pe ([1]; PAMPA standards) | Pe [1, 2] | Papp at 5 h, 200 µM [1, 2] | IC50 (P. falciparum NF54; [3]) | IC50 at 72 h (in vitro) | IC50 (P. falciparum NF54; [4])
1 | CCN(CC)CCCC(C)Nc1ccnc2cc(Cl)ccc12 (stereo not drawn) [CQ, chloroquine, reference compound] | 9672 | – | – | – | – | – | –
2 | Cn1c(=O)c2c(ncn2C)n(C)c1=O [Caffeine, reference compound] | – | 80 nm/s | 8.00 10^−6 cm/s | – | – | – | –
3 | CC(C)(C)OC(=O)N1CCN(c2ccccc2NC(=O)c2cccc([N+](=O)[O-])c2Oc2ccc(F)cc2)CC1 [Compound 28, tert-Butyl 4-{2-[2-(4-fluorophenoxy)-3-nitrobenzamido]phenyl}piperazine-1-carboxylate] | – | – | – | 1.68 ×10⁻⁶ cm/s | 0.591 µM | 90.4 µM | –
4 | CC(C)(C)OC(=O)N1CCN(c2ccccc2NC(=O)c2cccc(C(F)(F)F)c2Sc2ccc(F)cc2)CC1 [Compound 29, tert-Butyl 4-(2-{2-[(4-fluorophenyl)sulfanyl]-3-(trifluoromethyl)benz-amido}phenyl) piperazine-1-carboxylate] | 850.5 | – | 3.77 10^−6 cm/s | 4.31 ×10⁻⁶ cm/s | 0.195 µM | 166 µM | –
5 | CC(C)(C)OC(=O)N1CCN(c2ccccc2NC(=O)c2ccccc2Oc2ccccc2)CC1 [Compound 30, tert-Butyl 4-[2-(2-phenoxybenzamido)phenyl]piperazin-1-carboxylate] | 19.87 | – | – | 8.52 ×10⁻⁶ cm/s | 1.13 µM | 22.5 µM | –
6 | CC(C)(C)OC(=O)N1CCN(c2ccccc2NC(=O)c2cccc(C(F)(F)F)c2Nc2ccccc2)CC1 [Compound 31, tert-Butyl 4-{2-[2-anilino-3-(trifluoromethyl)benzamido]phenyl}piperazin-1-carboxylate] | – | – | – | 0.65 ×10⁻⁶ cm/s | 0.614 to 0.636 µM | 129 µM | 0.614 µM
7 | CC(C)(C)OC(=O)N1CCN(c2ccccc2NC(=O)c2cccc(C(F)(F)F)c2Nc2ccc(F)cc2)CC1 [Compound 32, tert-Butyl 4-{2-[2-(4-fluoroanilino)-3-(trifluoromethyl)benzamido]phenyl}piperazin-1-carboxylate] | – | – | – | 0.57 ×10⁻⁶ cm/s | 0.614 to 0.636 µM | 123 µM | 0.636 µM
8 | CC(C)(C)C(=O)N1CCN(c2ccccc2NC(=O)c2cccc([N+](=O)[O-])c2Oc2ccc(F)cc2)CC1 [Compound 34, N-{2-[4-(2,2-Dimethylpropanoyl)piperazin-1-yl]phenyl}-2-(4-fluorophenoxy)-3-nitrobenzamid] | – | – | – | 6.92 ×10⁻⁶ cm/s | 2.61 µM | 114 µM | –
9 | CC(C)(C)C(=O)N1CCN(c2ccccc2NC(=O)c2cccc(F)c2Oc2ccc(F)cc2)CC1 [Compound 35, N-{2-[4-(2,2-Dimethylpropanoyl)piperazin-1-yl]phenyl}-3-fluoro-2-(4-fluorophenoxy)benzamid] | – | – | 0.00 10^−6 cm/s | – | 2.14 µM | 15.6 µM | –
10 | CC(C)(C)OC(=O)N1CCN(c2ccc(NC(=O)c3ccccc3Oc3ccc(F)cc3)cc2)CC1 [Compound 36, tert-Butyl 4-{4-[2-(4-fluorophenoxy)benzamido]phenyl}piperazine-1-carboxylate] | – | – | – | 2.84 ×10⁻⁶ cm/s | 3.4 µM | 203 µM | –
11 | CC(C)(C)OC(=O)N1CCN(c2ccc(NC(=O)c3cccc(F)c3Oc3ccc(F)cc3)cc2)CC1 [Compound 37, tert-Butyl 4-{4-[3-fluoro-2-(4-fluorophenoxy)benzamido]phenyl}piperazine-1-carb-oxylate] | – | – | – | 0.7 ×10⁻⁶ cm/s | 4.07 µM | 35.3 µM | –
12 | CC(C)(C)OC(=O)N1CCN(c2ccc(NC(=O)c3cccc([N+](=O)[O-])c3Oc3ccc(F)cc3)cc2)CC1 [Compound 38, tert-Butyl 4-{4-[2-(4-fluorophenoxy)-3-nitrobenzamido]phenyl}piperazine-1-carb-oxylate] | – | – | – | 1.53 ×10⁻⁶ cm/s | 1.43 µM | 70.8 µM | –
13 | CC(C)(C)OC(=O)N1CCN(c2ccc(NC(=O)c3cccc(C(F)(F)F)c3Sc3ccc(F)cc3)cc2)CC1 [Compound 39, tert-Butyl 4-(4-{2-[(4-fluorophenyl)sulfanyl]-3-(trifluoromethyl)benzamido}phenyl) piperazine-1-carboxylate] | 212.8 | – | 4.31 10^−6 cm/s | 3.77 ×10⁻⁶ cm/s | 0.149 µM | 31.8 µM | –
14 | CC(C)(C)OC(=O)N1CCN(c2ccc(NC(=O)c3ccccc3Oc3ccccc3)cc2)CC1 [Compound 40, tert-Butyl 4-[4-(2-phenoxybenzamido)phenyl]piperazin-1-carboxylate] | 31.78 | – | – | 5.57 ×10⁻⁶ cm/s | 3.09 µM | 98.3 µM | –
15 | CC(C)(C)OC(=O)N1CCN(c2ccc(NC(=O)c3cccc(C(F)(F)F)c3Nc3ccccc3)cc2)CC1 [Compound 41, tert-Butyl 4-{4-[2-anilino-3-(trifluoromethyl)benzamido]phenyl}piperazin-1-carboxylate] | – | – | – | 1.32 ×10⁻⁶ cm/s | 0.539 to 0.634 µM | 33.8 µM | 0.634 µM
16 | CC(C)(C)OC(=O)N1CCN(c2ccc(NC(=O)c3cccc(C(F)(F)F)c3Nc3ccc(F)cc3)cc2)CC1 [Compound 42] | – | – | – | 0.2 ×10⁻⁶ cm/s | 0.539 to 0.634 µM | 94.2 µM | 0.539 µM
17 | CC(C)(C)C(=O)N1CCN(c2ccc(NC(=O)c3ccccc3Oc3ccc(F)cc3)cc2)CC1 [Compound 43, N-{4-[4-(2,2-Dimethylpropanoyl)piperazin-1-yl]phenyl}-2-(4-fluorophenoxy)benzamid] | – | – | – | 0.02 ×10⁻⁶ cm/s | 5.62 µM | 184 µM | –
18 | CC(C)(C)C(=O)N1CCN(c2ccc(NC(=O)c3cccc(F)c3Oc3ccc(F)cc3)cc2)CC1 [Compound 45, N-{4-[4-(2,2-Dimethylpropanoyl)piperazin-1-yl]phenyl}-3-fluoro-2-(4-fluorophenoxy)benzamid] | – | – | – | 5.13 ×10⁻⁶ cm/s | 1.79 µM | 109 µM | –
19 | CC(C)(C)OC(=O)N1CCN(c2ccccc2NC(=O)c2cccc(N)c2Oc2ccc(F)cc2)CC1 [Compound 46, tert-Butyl 4-{2-[3-amino-2-(4-fluorophenoxy)benzamido]phenyl}piperazine-1-carboxylate] | 126.0 | – | – | 1.44 ×10⁻⁶ cm/s | 1.01 µM | 127 µM | –
20 | NS(=O)(=O)c1cc2c(cc1Cl)NCNS2(=O)=O [Hydrochlorothiazide, reference compound] | – | 0.9 nm/s | – | – | – | – | –
